Data published in patent US20250177383A1, “DI-CYCLOPROPYL BASED IL-17A MODULATORS AND USES THEREOF” (DICE ALPHA, INC., priority 2022, published 2025).
Where two headings read alike, the source gives them in different places.

Biological target: T1, IL-17A/A (Homo sapiens, UniProt Q16552)
T1 sequence (Q16552 24-155): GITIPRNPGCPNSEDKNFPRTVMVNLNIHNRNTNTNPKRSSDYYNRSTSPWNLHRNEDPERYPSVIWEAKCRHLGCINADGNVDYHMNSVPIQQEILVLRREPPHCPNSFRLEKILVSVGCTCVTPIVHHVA
Experiment: IL-17A/A HEK-Blue Cell Assay
Assay type: cell-based
Conditions: IL-17A/A stimulation, 20 hours, SEAP readout
Description: The HEK-Blue IL-17 reporter cell line (Fisher #NC1408637) was used for cell-based IL-17A/A inhibition assays. Cells were grown and prepared for assays according to the manufacturer's instructions. This cell line consists of HEK 293 cells that were designed to expressed IL-17R^A, IL-17R^C, and the ActI adapter molecule, the combination of which, when stimulated by IL-17A/A activates a NFκB promoter and drives expression of a recombinant Secreted Alkaline Phosphatase (SEAP) protein. Media from the cells is then added to a development reagent (Quanti-Blue Substrate, Fisher #NC9711613), and read at A630.
Compounds were titrated in DMSO, with a top final compound concentration of 10 uM and added to the cells immediately before adding IL-17A/A (Genscript #Z03228). The cells, compound, and IL-17A/A were then incubated for 20 hours before media was removed for SEAP analysis. The resulting inhibition curve was then analyzed using a Dotmatics screening protocol, and IC50 values were determined using a 4-parameter nonlinear fit. DMSO was added to a universal final concentration of 0.1% to optimize background. IL-17A/A inhibition data is provided in Table 1 for selected compounds.

[1] = HEK-Blue IL-17 reporter cells, read-out: IL17 AA HEK-5 pIC50 (converted)

SMILES | IC50 [1] [nM] | IC50 (IL17 AA HEK-5 pIC50, HEK-Blue IL-17 reporter cells) [nM]
CCC(=O)N[C@@H](C(=O)N1CCN(C)C(COC)C1)[C@@H](C)c1ccc(NC(=O)[C@@H](NC(=O)c2ccnn2CC)C(C2CC2)C2CC2)c(F)c1 (single isomer, unassigned) [Compound 202] | 10 to 100 | –
CCC(=O)N[C@@H](C(=O)N1CCN(C)CC1)[C@@H](C)c1ccc(NC(=O)[C@@H](NC(=O)c2ccnn2C2CC2(F)F)C(C2CC2)C2CC2)c(F)c1 (single isomer, unassigned) [Compound 233] | 10 to 100 | –
CCC(=O)N[C@@H](C(=O)N1CCN(C)CC1)[C@@H](C)c1ccc(NC(=O)[C@@H](NC(=O)c2ccnn2C2CC2(F)F)C(C2CC2)C2CC2)c(F)c1 (single isomer, unassigned) [Compound 234] | < 10 | –
CCC(=O)N[C@@H](C(=O)N1CCN(C)CC1)[C@@H](C)c1ccc(NC(=O)[C@H](NC(=O)c2ccnn2CC)C(C2CC2)C2CC2)c(F)c1 [Compound 201] | 10 to 100 | –
CCC(=O)N[C@@H](C(=O)N1CCN(C)CC1)[C@@H](C)c1ccc(NC(=O)[C@@H](NC(=O)c2nonc2CC)C(C2CC2)C2CC2)c(F)c1 [Compound 204] | < 10 | –
CCC(=O)N[C@@H](C(=O)N1C[C@@H](C)N(C)[C@@H](C)C1)[C@@H](C)c1ccc(NC(=O)[C@@H](NC(=O)c2nonc2CC)C(C2CC2)C2CC2)c(F)c1 [Compound 205] | < 10 | –
CCc1nonc1C(=O)N[C@H](C(=O)Nc1ccc([C@H](C)[C@@H](NC(=O)COC)C(=O)N2CCN(C)CC2)cc1F)C(C1CC1)C1CC1 [Compound 206] | < 10 | –
CCC(=O)N[C@@H](C(=O)N1CCN(C)C[C@@H]1C)[C@@H](C)c1ccc(NC(=O)[C@@H](NC(=O)c2ccnn2CC)C(C2CC2)C2CC2)c(F)c1 [Compound 208] | < 10 | –
CCOC(=O)N(C)[C@@H](C)C(=O)N[C@@H](C(=O)N1CCN(C)[C@H](C)C1)[C@@H](C)c1ccc(NC(=O)[C@@H](NC(=O)c2ccnn2CC)C(C2CC2)C2CC2)c(F)c1 [Compound 210] | < 10 | –
CCOC(=O)N(C)[C@@H](C)C(=O)N[C@@H](C(=O)N1CCN(C)CC1)[C@@H](C)c1ccc(NC(=O)[C@@H](NC(=O)c2ccnn2CC)C(C2CC2)C2CC2)c(F)c1 [Compound 211] | < 10 | –
CCn1nccc1C(=O)N[C@H](C(=O)Nc1ccc([C@H](C)[C@@H](NC(=O)CCF)C(=O)N2CCN(C)CC2)cc1F)C(C1CC1)C1CC1 [Compound 218] | 10 to 100 | –
CCc1nonc1C(=O)N[C@H](C(=O)Nc1ccc([C@H](C)[C@@H](NC(=O)[C@H](C)OC)C(=O)N2CCN(C)CC2)cc1F)C(C1CC1)C1CC1 [Compound 220] | < 10 | –
CCc1nonc1C(=O)N[C@H](C(=O)Nc1ccc([C@H](C)[C@@H](NC(=O)N(C)C2CC2)C(=O)N2CCN(C)CC2)cc1F)C(C1CC1)C1CC1 [Compound 224] | < 10 | –
CCn1nccc1C(=O)N[C@H](C(=O)Nc1ccc([C@H](C)[C@@H](NC(=O)CC2CC2)C(=O)N2CCN(C)[C@H](C)C2)cc1F)C(C1CC1)C1CC1 [Compound 226] | < 10 | –
CCn1nccc1C(=O)N[C@H](C(=O)Nc1ccc([C@H](C)[C@@H](NC(=O)CC2CC2)C(=O)N2CCN(C)CC2)cc1F)C(C1CC1)C1CC1 [Compound 227] | < 10 | –
CCn1nccc1C(=O)N[C@H](C(=O)Nc1ccc([C@H](C)[C@@H](NC(=O)CF)C(=O)N2CCN(C)[C@H](C)C2)cc1F)C(C1CC1)C1CC1 [Compound 228] | – | 10 to 100
CCC(=O)N[C@@H](C(=O)N1CCN(C)[C@H](C)C1)[C@@H](C)c1ccc(NC(=O)[C@@H](NC(=O)c2ccnn2C2CC2)C(C2CC2)C2CC2)c(F)c1 [Compound 229] | < 10 | –
CCC(=O)N[C@@H](C(=O)N1CCN(C)CC1)[C@@H](C)c1ccc(NC(=O)[C@@H](NC(=O)c2ccnn2C2CC2)C(C2CC2)C2CC2)c(F)c1 [Compound 230] | 10 to 100 | –
CCC(=O)N[C@@H](C(=O)N1CCN(C)CC1)[C@@H](C)c1ccc(NC(=O)[C@@H](NC(=O)c2ccnn2CC(F)F)C(C2CC2)C2CC2)c(F)c1 [Compound 231] | 10 to 100 | –
